# Laboratory results taken from the NIST ThermoML archive (doi:10.1016/j.fluid.2008.02.013).
# “And” between values parts separate entries of the source, which are not always exact repeats. Equal entries are not always repeated. Numbers after ± are expanded uncertainties.
# What was measured:
# [1] = Crystal; DTA
# [2] = Molar enthalpy of transition or fusion; conditions: Crystal; DSC
compound,measurement,setting,value
C=C(C)[C@@H]1CC[C@]2(CO)CC[C@]3(C)[C@H](CC[C@@H]4[C@@]5(C)CC[C@H](O)C(C)(C)[C@@H]5CC[C@]43C)[C@@H]12 [betulin],Normal melting temperature,[1],257.5 ± 2 °C and 255.0 ± 2 °C and 254.8 ± 2 °C
same,Molar enthalpy of transition or fusion,[2],12.4 kcal/mol and 12.8 kcal/mol and 13.2 kcal/mol
